Data taken from US5661165A, “((4-phenyl-1,2,5-thiadiazol-3-yl)oxy)methyl ester thiocyanic acid compounds, compositions containing them and their use as antimicrobial and marine antifouling agents” (The Dow Chemical Company, priority 1996, dated 1997).
Converted amounts (≈) assume the structure as drawn. Read-outs that look alike come from different tables or passages of the source.

Key:
Bacillus subtilis (Bs) = experiment: MIC against bacteria (nutrient agar); type: cell-based, Bacillus subtilis ATCC 8473; conditions: 30° C., 48 h, read-out: Minimum Inhibitory Concentration, Bs
[1] = system: Enterobacter aerogenes (Ea); experiment: MIC against bacteria (nutrient agar); type: cell-based, Enterobacter aerogenes ATCC 13048; conditions: Klebsiella aerogenes, 30° C., 48 h, read-out: Minimum Inhibitory Concentration, Ea
Escherichia coli (Ec) = experiment: MIC against bacteria (nutrient agar); type: cell-based, Escherichia coli ATCC 11229; conditions: 30° C., 48 h, read-out: Minimum Inhibitory Concentration, Ec
[2] = system: Klebsiella pneumoniae (Kp); experiment: MIC against bacteria (nutrient agar); type: cell-based, Klebsiella pneumoniae ATCC 8308; conditions: 30° C., 48 h, read-out: Minimum Inhibitory Concentration, Kp
Proteus vulgaris (PV) = experiment: MIC against bacteria (nutrient agar); type: cell-based, Proteus vulgaris ATCC 881; conditions: 30° C., 48 h, read-out: Minimum Inhibitory Concentration, Pv
[3] = system: Psuedomonas aeruginosa (PRD-10); experiment: MIC against bacteria (nutrient agar); type: cell-based, Psuedomonas aeruginosa ATCC 15442; conditions: 30° C., 48 h, read-out: Minimum Inhibitory Concentration, PRD
[4] = system: Psuedomonas aeruginosa (Pa); experiment: MIC against bacteria (nutrient agar); type: cell-based, Psuedomonas aeruginosa ATCC 10145; conditions: 30° C., 48 h, read-out: Minimum Inhibitory Concentration, Pa
Protocol: (§1) The antimicrobial activity of the compounds of the present invention is set forth as the minimum inhibitory concentration (MIC) for the active compounds and is determined for nine (9) bacteria, using nutrient agar, and seven (7) yeast and fungi, using malt yeast agar. This determination is conducted using a one percent solution of the test compound prepared in a mixture of acetone and water.
Nutrient agar is prepared at pH 6.8, representing a neutral medium, and at pH 8.2, representing an alkaline medium. The nutrient agars are prepared by adding 23 g of nutrient agar to one-liter of deionized water. In addition, the alkaline medium is prepared by adjusting a 0.04M solution of N-[tris-(hydroxymethyl)methyl]-glycine buffered deionized water with concentrated sodium hydroxide to a pH of 8.5.
(§2) The test tubes containing the agar are cooled in a water bath until the temperature of the agar is 48° C. Then, an appropriate amount of the one percent solution of the test compound is added (except in the controls where no compound is added) to the respective test tubes so that the final concentrations are 500, 250, 100, 50, 25, 10, 5, 2.5, 1.0 and zero parts per million of the test compound in the agar, thus having a known concentration of test compound dispersed therein. The contents of the test tubes are then transferred to respective petri plates. After drying for 24 hours, the petri plates containing nutrient agar are inoculated with bacteria and those containing malt yeast agar are inoculated with yeast and fungi.
The inoculation with bacteria is accomplished by using the following procedure. Twenty-four hour-cultures of each of the bacteria are prepared by incubating the respective bacteria in tubes containing nutrient broth for 24 hours at 30° C. in a shaker. Dilutions of each of the 24 hour-cultures are made so that nine separate suspensions (one for each of the nine test bacteria) are made, each containing 10^8 colony forming units (CFU) per mL of suspension of a particular bacteria. Aliquots of 0.3 mL of each of the bacterial suspensions are used to fill the individual wells of Steer's Replicator. For each microbial suspension, 0.3 mL was used to fill three wells (i.e., three wells of 0.3 mL each) so that for the nine different bacteria, 27 wells are filled. The Steer's Replicator is then used to inoculate both the neutral and alkaline pH nutrient agar petri plates.
The inoculated petri plates are incubated at 30° C. for 48 hours and then read to determine if the test compound which is incorporated into the agar prevented growth of the respective bacteria.
(§3) Table I lists the bacteria, yeast and fungi used in the MIC test described above along with their respective American Type Culture Collection (ATCC) identification numbers.

[5] = system: Salmonella choleraesuis (Sc); experiment: MIC against bacteria (nutrient agar); type: cell-based, Salmonella choleraesuis ATCC 10708; conditions: Salmonella enterica, 30° C., 48 h, read-out: Minimum Inhibitory Concentration, Sc
[6] = system: Staphylococcus aureus (Sa); experiment: MIC against bacteria (nutrient agar); type: cell-based, Staphylococcus aureus ATCC 6538; conditions: 30° C., 48 h, read-out: Minimum Inhibitory Concentration, Sa
Aperigillus niger (An) = experiment: MIC against yeast/fungi (malt yeast agar); type: cell-based, Aperigillus niger ATCC 16404; conditions: 30° C., fungi read after 72 h, read-out: Minimum Inhibitory Concentration, An
Protocol: as §1
(§4) Malt yeast agar is prepared by adding 3 g yeast extract and 45 g malt agar per liter of deionized water. The specific agar is dispensed in 30 mL aliquots into 25×200 mm test tubes, capped and autoclaved for 15 minutes at 115° C.
as §2
(§5) The inoculation with the yeast and fungi is accomplished as follows. Cultures of yeast and fungi are incubated for seven days on malt yeast agar at 30° C. These cultures are used to prepare suspensions by the following procedure. A suspension of each organism is prepared by adding 10 mL of sterile saline and 10 microliters of octylphenoxy polyethoxy ethanol to the agar slant of yeast or fungi. The sterile saline/octylphenoxy polyethoxy ethanol solution is then agitated with a sterile swab to suspend the microorganism grown on the slant. Each resulting suspension is diluted into sterile saline (1 part suspension to 9 parts sterile saline). Aliquots of these dilutions are placed in individual wells of Steer's Replicator and petri plates inoculated as previously described. The petri plates are incubated at 30° C. and read after 48 hours for yeast and 72 hours for fungi.
as §3

Candida albicans (Ca) = experiment: MIC against yeast/fungi (malt yeast agar); type: cell-based, Candida albicans ATCC 10231; conditions: 30° C., yeast read after 48 h, read-out: Minimum Inhibitory Concentration, Ca
Protocol: as §1, §4, §2, §5, §3

[7] = system: Pencillium chrysogenum (Pc); experiment: MIC against yeast/fungi (malt yeast agar); type: cell-based, Pencillium chrysogenum ATCC 9480; conditions: 30° C., fungi read after 72 h, read-out: Minimum Inhibitory Concentration, Pc
Protocol: as §1, §4, §2, §5, §3

[8] = system: Saccharomyces cerevisiae (Sc); experiment: MIC against yeast/fungi (malt yeast agar); type: cell-based, Saccharomyces cerevisiae ATCC 4105; conditions: 30° C., yeast read after 48 h, read-out: Minimum Inhibitory Concentration, Sc
Protocol: as §1, §4, §2, §5, §3

Trichoderma viride (Tv) = experiment: MIC against yeast/fungi (malt yeast agar); type: cell-based, Trichoderma viride ATCC 8678; conditions: 30° C., fungi read after 72 h, read-out: Minimum Inhibitory Concentration, Tv
Protocol: as §1, §4, §2, §5, §3

[9] = system: Aureobasidium pullulan (Ap); experiment: MIC against yeast/fungi (malt yeast agar); type: cell-based, Aureobasidium pullulan ATCC 16622; conditions: 30° C., yeast 48 h / fungi 72 h, read-out: Minimum Inhibitory Concentration, Ap
Protocol: as §1, §4, §2, §5, §3

Fusarium oxysporum (Fo) = experiment: MIC against yeast/fungi (malt yeast agar); type: cell-based, Fusarium oxysporum ATCC 48112; conditions: 30° C., fungi read after 72 h, read-out: Minimum Inhibitory Concentration, Fo
Protocol: as §1, §4, §2, §5, §3

marine organisms = experiment: Marine antifouling rating on test panels exposed to the marine environment
Protocol: Test panels are prepared from clear, rigid polyvinyl chloride film that is 0.381×10^-3 m thick and has one textured surface. The test panels are 0.1524 m by 0.1524 m squares that have 0.00635 m holes punched at corners on 0.127 m centers. A 0.102 square template, with a 0.067 m diameter hole at the center, is attached to the center of the textured surface of the test panels.
The candidate marine antifoulant compound (1.0 g) is stirred into a resinous latex binder (9.0 g). A portion of the compound/binder mixture (1.5 g) is added to the center of the test panel and uniformly spread over the circular area inside the template.
Water is added dropwise as needed to properly spread the compound/binder mixture. The template prevents the compound/binder mixture from spreading beyond the uncovered area. The test panel is allowed to sit for between 10 to 30 minutes until the edge of the spread compound/binder mixture has dried. The template is then removed. The test panel is then allowed to dry for 8 to 12 hours at room temperature.
Two test panels are prepared for each candidate marine antifoulant compound. Two control test panels are also prepared by only treating with the resinous latex binder. One test panel of each candidate marine antifoulant compound is attached over a white background to the topside of an exposure support apparatus. The second test panel is attached over a black background to the underside of the exposure support apparatus. The exposure support apparatus is placed horizontally 0.0254 m under a marine surface with the white background topside facing up. […]
After being removed from the exposure support apparatus, each test panel is inspected and rated for marine organism growth on both the treated and untreated areas of the test panel. The marine organisms present on the treated and untreated areas are noted. The presence of algae spores and bacterial slime are noted but not included in rating each test panel. The test panels are rated on a scale from 10 (representing completely free of marine organism growth) to 0 (representing completely covered with marine organism growth).
In Table IV, the marine antifouling rating values for ((4-phenyl-1,2,5-thiadiazol-3-yl)oxy)methyl ester is set forth, as well as the ratings for control panels (with no marine antifouling compound and referred to as "Control").

[10] = 16 weeks, scale 10 (completely free of growth) to 0 (completely covered), control --

Structure (SMILES) | MIC (Bacillus subtilis (Bs); pH 6.8, nutrient agar) | MIC (Bacillus subtilis (Bs); pH 8.2, nutrient agar) | MIC ([1]; pH 6.8, nutrient agar) | MIC ([1]; pH 8.2, nutrient agar) | MIC (Escherichia coli (Ec); pH 6.8, nutrient agar) | MIC (Escherichia coli (Ec); pH 8.2, nutrient agar) | MIC ([2]; pH 6.8, nutrient agar) | MIC ([2]; pH 8.2, nutrient agar) | MIC (Proteus vulgaris (PV); pH 6.8, nutrient agar) | MIC (Proteus vulgaris (PV); pH 8.2, nutrient agar) | MIC ([3]; pH 6.8, nutrient agar) | MIC ([3]; pH 8.2, nutrient agar) | MIC ([4]; pH 6.8, nutrient agar) | MIC ([4]; pH 8.2, nutrient agar) | MIC ([5]; pH 6.8, nutrient agar) | MIC ([5]; pH 8.2, nutrient agar) | MIC ([6]; pH 6.8, nutrient agar) | MIC ([6]; pH 8.2, nutrient agar) | MIC (Aperigillus niger (An)) | MIC (Candida albicans (Ca)) | other results
N#CSCOc1nsnc1-c1ccccc1 [Example I, ((4-Phenyl-1,2,5-thiadiazol-3-yl)oxy)methyl ester thiocyanic acid] | < 10 µg/mL | < 10 µg/mL | > 500 µg/mL | 500 µg/mL (≈ 2010 µM) | 500 µg/mL (≈ 2010 µM) | > 500 µg/mL | 500 µg/mL (≈ 2010 µM) | 500 µg/mL (≈ 2010 µM) | > 500 µg/mL | 500 µg/mL (≈ 2010 µM) | > 500 µg/mL | > 500 µg/mL | > 500 µg/mL | > 500 µg/mL | 500 µg/mL (≈ 2010 µM) | > 500 µg/mL | 25 µg/mL (≈ 100 µM) | 25 µg/mL (≈ 100 µM) | < 1 µg/mL | 2.5 µg/mL (≈ 10 µM) | MIC [7]: < 1 µg/mL; MIC [8]: 2.5 µg/mL (≈ 10 µM); MIC (Trichoderma viride (Tv)): 25 µg/mL (≈ 100 µM); MIC [9]: < 1 µg/mL; MIC (Fusarium oxysporum (Fo)): 5 µg/mL (≈ 20.1 µM); Marine Antifouling Rating, Bottom Panel (marine organisms; 6 weeks, scale 10 (completely free of growth) to 0 (completely covered), control 0): 9; Marine Antifouling Rating, Top Panel (marine organisms; 6 weeks, scale 10 (completely free of marine organism growth) to 0 (completely covered), control 6): 8; Marine Antifouling Rating, Bottom Panel (marine organisms; 10 weeks, scale 10 (completely free of growth) to 0 (completely covered), control 0): 7; Marine Antifouling Rating, Top Panel (marine organisms; 10 weeks, scale 10 (completely free of growth) to 0 (completely covered), control 3): 3; Marine Antifouling Rating, Bottom Panel (marine organisms; [10]): 2; Marine Antifouling Rating, Top Panel (marine organisms; [10]): 8
N#CSCOc1nsnc1-c1cccc(Cl)c1 [II, ((4-(3-Chlorophenyl)-1,2,5-thiadiazol-3-yl)oxy)methyl ester thiocyanic acid] | < 10 µg/mL | < 10 µg/mL | > 500 µg/mL | 500 µg/mL (≈ 1760 µM) | 500 µg/mL (≈ 1760 µM) | > 500 µg/mL | 500 µg/mL (≈ 1760 µM) | 500 µg/mL (≈ 1760 µM) | > 500 µg/mL | 500 µg/mL (≈ 1760 µM) | > 500 µg/mL | > 500 µg/mL | > 500 µg/mL | > 500 µg/mL | 500 µg/mL (≈ 1760 µM) | > 500 µg/mL | < 10 µg/mL | < 10 µg/mL | 2.5 µg/mL (≈ 8.81 µM) | 5 µg/mL (≈ 17.6 µM) | MIC [7]: < 1 µg/mL; MIC [8]: < 1 µg/mL; MIC (Trichoderma viride (Tv)): 500 µg/mL (≈ 1760 µM); MIC [9]: 2.5 µg/mL (≈ 8.81 µM); MIC (Fusarium oxysporum (Fo)): 10 µg/mL (≈ 35.2 µM)
